Test results as given in patent US20220289791A1, “LACTATE DEHYDROGENASE INHIBITOR POLYPEPTIDES FOR USE IN THE TREATMENT OF CANCER” (UNIVERSITÉ CATHOLIQUE DE LOUVAIN, priority 2019, published 2022).
*1 amine or outer side, *2 acyl side, *3 side chain or, on linkers, in order; H or OH if unused. Where a SMILES comes first, the peptide text is derived from it. Bridges are numbered along the chain shown (N, C = ends). C6F4(1,4-diyl) = Fc1c(F)c([*:2])c(F)c(F)c1[*:1]

What was measured:
[1] = target: human LDH1 (Homo sapiens, UniProt P07195); experiment: nanoDSF thermal denaturation of LDH1; type: binding
[2] = system: Mia Paca-2 human pancreatic cancer cells; experiment: Seahorse OCR and ECAR measurement; type: cell-based; details: 200 μM, 4 h incubation
Method: Macrocyclic peptide MP7 (SEQ ID NO: 61) was evaluated at 200 μM against Mia Paca-2 human pancreatic cancer cells (ATCC®).
The oxygen consumption rate (OCR) and extracellular acidification rate (ECAR) were measured on a Seahorse XF96 analyzer (Agilent®) with a combination of XF cell mito stress kit (Agilent®) and 2-deoxy-D-glucose (2DG; Sigma Aldrich®). Seahorse experiments were performed using 10,000 cells/well in DMEM medium with 10 mmol/L of D-glucose and 1 mmol/L of L-Glutamine Cells were incubated for 1 h in a CO2-free incubator before analysis. […] Oximetry before the addition of any agent provided the basal respiration rate of the cells; ATP-linked reparation was determined after the addition of 1 μM of oligomycin and the maximal respiration rate of the cells after the addition of 1 μM of FCCP. All data were normalized to cell numbers measured right before oximetry using a SpectraMax miniMax 300 imaging cytometer (Molecular Devices®). Macrocyclic peptide MP7 in PBS or PBS alone (control experiment) were added directly into the medium and incubated with Mia Paca-2 cells during 4 h before conducting Seahorse experiments on the medium composed of the Mia Paca-2 cells with or without macrocyclic peptide MP7.

[3] = target: dimeric model of LDH (Homo sapiens, UniProt P07195); experiment: nanoDSF thermal denaturation of dimeric LDH model; type: binding
[4] = target: LDHBtr (Homo sapiens, UniProt P07195); experiment: Intrinsic fluorescence assay on dimeric LDHBtr; type: biochemical
Method: Full tryptophan fluorescence spectra were recorded using an excitation wavelength of 286 nm and recording the emission spectra from 320 nm to 400 nm at room temperature. Raw fluorescence of every experiments was further subtracted to a corresponding control experiment without the protein. Experiments were performed in a 50 mM sodium phosphate and 100 mM NaCl, pH 7.6, buffer. For LDH dissociation into subunits, increasing amounts of guanidinium/HCl were put in contact with the studied proteins (1.3 μM), and fluorescence spectra were recorded afterwards. Guanidinium/HCl concentrations ranged from 0.3 M to 2 M.

[5] = target: truncated LDHB (LDHBtr) (Homo sapiens, UniProt P07195); experiment: Microscale thermophoresis (MST), Example 2, macrocycles against truncated LDHB; type: binding; details: MST traces at 10 s to 20 s on time
Method: MST measurements were performed on a Nanotemper Monolith NT.115 instrument (NanoTemper Technologies®) using Red-dye-NHS fluorescent labeling. Each LDH sample, purified to homogeneity, was labeled with the Monolith Red-dye-NHS 2nd generation labeling dye (NanoTemper Technologies®), according to the manufacturer's instructions. Measurements were performed in 50 mM sodium phosphate, pH 7.6, and 100 mM NaCl containing 0.05% Tween-20 in premium-treated capillaries (NanoTemper Technologies®). The final concentrations of either labeled protein in the assay were 100 nM. The ligands (NADH and peptides) were titrated in 1:1 dilutions following manufacturer's recommendations. All binding reactions were incubated for 5 min at room temperature after loading into capillaries. Experiments were performed in triplicates using 40% LED power, medium MST power, Laser On time 20 s and Laser Off time 3 s. Peptides were evaluated for their thermophoretic pattern, and Kd's were extracted from raw data at a 10 to 20 s MST on time according to manufacturer's instructions. Regarding interaction of 7 with LDH5, Kd was extracted from the raw fluorescence. A denaturation test was performed accordingly to manufacturer recommendation and excluded any nonspecific spectral interaction between 7 and the red-dye. All Kd's of interacting macrocycles and peptides were obtained in triplicate and corrected by taking into account the molecular weight of the TFA counter ion.

[6] = target: T1, rabbit LDH5 (rLDH5) (Oryctolagus cuniculus, UniProt P13491); experiment: Denaturation assay: rLDH5 fluorescence recovery after acidic exposure; type: biochemical; details: 200 nM rLDH5, 50 μM peptide, pH 5 then neutral pH
T1 construct: purchased Sigma-Aldrich
Method: Rabbit LDHA commercial solution (Sigma-Aldrich®) in an ammonium sulfate suspension (pH-7, 3.2 M) was first diluted to 1 mg/ml in a solution of NaCl 200 mM and then dialyzed at 4° C. 2×2 h against 200 mM NaCl. The stock solution of 1 mg/ml was then diluted to 30 μg/ml (800 nM) in NaCl 20 0 mM to give the assay solution. Assay solution was mixed 1:1 with acetate-chloride buffer (20 mM Acetic acid/Acetate, 180 mM NaCl, 1 mM DTT pH 5) and stored on ice for 30 minutes. Samples were then removed from ice and let warm up for 2 minutes. The acidic solution was then diluted 1:1 with a 250 mM phosphate buffer (pH 7.6) containing or not the inhibitory peptide to yield a 7.5 μg/ml (200 nM) final concentration of re-associating LDHA. Samples of the resulting solutions were then subjected to kinetic experiments of the recovery of intrinsic fluorescence (Exc=286 nm, Em=350 nm, 10′, rt).
An experiment was thus designed to follow the recovery of LDH tetramers after a dissociation step initiated by acidic conditions. […] Monitoring of the rLDH5 tetrameric state was performed by following its intrinsic tryptophan fluorescence: 6 tryptophan residues can be found in each rLDHA monomer, three of them being located at the dimer-dimer interface. As the tryptophan quantum yield decreases in a polar environment, dimeric LDHs show very weak tryptophan fluorescence compared to the tetrameric form. […] Such decay can be compared to the difference in tryptophan fluorescence between tetrameric LDH1 and dimeric LDHBtr.

[7] = target: T2, human LDH5 (Homo sapiens, UniProt P00338); experiment: nanoDSF thermal denaturation of LDH5; type: binding
T2 construct: purchased Abnova

Chain of human LDH1 (P07195 whole entry): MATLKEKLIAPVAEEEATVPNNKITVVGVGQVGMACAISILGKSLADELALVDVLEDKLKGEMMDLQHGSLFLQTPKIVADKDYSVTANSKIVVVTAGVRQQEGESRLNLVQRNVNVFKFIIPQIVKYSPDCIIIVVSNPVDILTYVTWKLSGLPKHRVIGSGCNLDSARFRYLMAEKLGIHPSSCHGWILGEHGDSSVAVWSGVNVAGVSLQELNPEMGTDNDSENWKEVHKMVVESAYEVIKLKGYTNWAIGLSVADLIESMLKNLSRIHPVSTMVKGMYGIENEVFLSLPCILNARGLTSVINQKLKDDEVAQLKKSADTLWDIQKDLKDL
Chain of dimeric model of LDH (P07195 21-334): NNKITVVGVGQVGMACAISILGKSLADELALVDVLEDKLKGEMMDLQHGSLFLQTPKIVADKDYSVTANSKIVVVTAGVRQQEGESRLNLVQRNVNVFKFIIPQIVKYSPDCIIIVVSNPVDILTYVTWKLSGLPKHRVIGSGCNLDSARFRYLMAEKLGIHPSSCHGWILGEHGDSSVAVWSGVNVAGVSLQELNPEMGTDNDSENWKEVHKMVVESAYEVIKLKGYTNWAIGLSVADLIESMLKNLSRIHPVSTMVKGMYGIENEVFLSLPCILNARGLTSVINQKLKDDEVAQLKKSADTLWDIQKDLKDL
Chain of LDHBtr (P07195 21-334): as above
Chain of truncated LDHB (LDHBtr) (P07195 21-334): as above

Question: For `CC[C@H](C)[C@H](NC(=O)[C@H](CC(C)C)NC(=O)[C@H](CCCCN)NC(=O)[C@@H]1CSc2c(F)c(F)c(c(F)c2F)SC[C@H](N)C(=O)N[C@@H]([C@@H](C)O)C(=O)N[C@@H](CC(C)C)C(=O)N[C@@H](CCCCN)C(=O)N1)C(N)=O` [MP7, CTLKCKLI] (H-CTLKCKLI-NH2; linker 1-5 via C6F4(1,4-diyl); N-terminus assumed), which ΔTm at 400 µM ([1]; LDH1, MP7 at 400 μM) is on record?
Answer: The ΔTm at 400 µM was -1.5 °C.

Question: And the “effect on LDH1 stability” value ([1]; nanoDSF)?
Answer: The value was “induced a destabilizing conformational change”.

Question: And the “glycolytic flux (ECAR)” value [2]?
Answer: Its value is “increase”.

Question: What about the “mitochondrial oxygen consumption rate (OCR)” value [2] of the same compound?
Answer: The value was “strong decrease”.

Question: What about the “destabilization of dimeric model of LDH” value [3] of the same compound?
Answer: Its value is “did not induce such destabilization”.

Question: And the “decay of LDHBtr fluorescence spectrum” value [4]?
Answer: The value was “did not induce a comparative decay”.

Question: What about the Kd [5] of the same compound?
Answer: Its Kd is 11 µM.

Question: And the “LDH5 fluorescence recovery after acidification” value [6]?
Answer: Its value is “significantly interfered”.

Question: And the ΔTm at 400 µM ([7]; LDH-5 tetramer, MP7 at 400 μM)?
Answer: Its ΔTm at 400 µM is -5 °C.

Question: And the “effect on LDH5 stability” value ([7]; nanoDSF)?
Answer: Its value is “induced a destabilizing conformational change”.
